Measured values from patent US6048872A, “Arylethanolamine derivatives and their use as agonists of atypical beta-adrenoceptors” (Glaxo Wellcome Inc., priority 1995, dated 2000).
Structures can show the parent of a compound that is named as a salt.

Assays:
[1] = target: T1, human beta-3-adrenoceptor (Homo sapiens, UniProt P13945); assay: cAMP accumulation in CHO cells transfected with the human beta-3-adrenoceptor (Method 1), potency relative to isoprenaline; assay type: cell-based; conditions: relative potency of test agonist compared to isoprenaline (EC50 ratio), H β3 CHO cells
T1 construct: whole-cell cAMP accumulation, potency relative to isoprenaline
Experimental: […] The cell lines may also be transfected with human beta-1- and beta-2- adrenoceptor in a similar manner to provide a method of determining the selectivity of the compounds of the invention at the three receptors.
General cell culture guidelines are observed (Fershney, R. A. (1987) Culture of animal cells: A manual of basic technique. Wiley-Liss, Inc., N.Y.). A standard cell culture incubator is used (37° C., 5% CO2 in air, 95% relative humidity). H β3 CHO cells are grown in 75 ml flasks in MEMα medium containing 9% FCS & 125 μg/ml G418. One confluent flask of cells is trypsinised and resuspended in 80 ml of culture medium; 1 ml of the cell suspension is added to each well of three 24-well plates. The plates are then incubated for 1 day.
The medium is aspirated from each well, and the well rinsed with phosphate-buffered saline (PBS, this is then aspirated). 1 ml of MEMα (no FCS or G418, 300μ M IBMX) is added to each well. Antagonists, if required, are added at this stage. The plate is then placed back in the incubator for 30 min. Drugs are then added to the wells (10 μl, 100x required final concentration), the plate gently swirled to mix the drugs, and the plate placed back in the incubator for 30 min. The medium is then aspirated from each well, the well rinsed with PBS, and 0.5 ml perchloric acid (6% v/v in distilled water, 2-5° C.). The plate is left on ice for 30 min. The perchloric acid (containing cAMP) is transferred to a clean 24-well plate and the acid neutralised by addition of saturated KHCO3 solution (200 μl) to each well. The plate is then swirled and frozen (-20° C.) until cAMP is assayed. cAMP is assayed using an enzyme-immunoassay kit (Amersham).
The relative potency of each test agonist (EPMR) is compared to isoprenaline as follows: [formula] wherein EC50 is the molar concentration of agonist which produces 50% of the maximum possible response for that agonist.

[2] = system: indomethacin-induced antral damage; assay: Protective effect on indomethacin-induced gastric antral lesions in the re-fed rat (Method 2); assay type: in vivo; conditions: po, rats dosed orally 30 minutes before indomethacin 60 mg/kg s.c., antral damage assessed at 6 hours post dose
Experimental: […] The procedure is based upon that described by H. Satoh et. al., Gastroenterology, 81, 719-725 (1981) in which the effect of compounds on indomethacin-induced gastric antral lesions in the re-fed rat is investigated. Indomethacin is an example of the class of compound known as non-steroidal anti-inflammatory drugs (NSAIDs), the use of which is frequently associated with gastrointestinal ulcers.
Food (but not water) is withheld from female random hooded rats (70-120 g) for 24 hours and then the rats are re-fed with Rat and Mouse No. 1 Maintenance Diet. After 1 hour of access to food, the rats are dosed orally with either the test compound or solvent (0.5% w/v methyl cellulose in water). […]
The rat's stomach is removed (with a small amount of duodenum attached), opened along the greater curvature and the contents removed by washing with 0.9% w/v sodium chloride solution (saline). The opened stomach is pinned out (mucosal surface uppermost) on a polystyrene mat and the area of damage assessed by placing a grid (composed of 1 mm squares) over the antral region. […] The total area of antral damage is then expressed as a percentage of the total surface area of the antrum.
The protective effect of the test compound on indomethacin-induced antral damage is calculated as a percentage using the following equation: [formula]

T1 sequence (P13945 whole entry): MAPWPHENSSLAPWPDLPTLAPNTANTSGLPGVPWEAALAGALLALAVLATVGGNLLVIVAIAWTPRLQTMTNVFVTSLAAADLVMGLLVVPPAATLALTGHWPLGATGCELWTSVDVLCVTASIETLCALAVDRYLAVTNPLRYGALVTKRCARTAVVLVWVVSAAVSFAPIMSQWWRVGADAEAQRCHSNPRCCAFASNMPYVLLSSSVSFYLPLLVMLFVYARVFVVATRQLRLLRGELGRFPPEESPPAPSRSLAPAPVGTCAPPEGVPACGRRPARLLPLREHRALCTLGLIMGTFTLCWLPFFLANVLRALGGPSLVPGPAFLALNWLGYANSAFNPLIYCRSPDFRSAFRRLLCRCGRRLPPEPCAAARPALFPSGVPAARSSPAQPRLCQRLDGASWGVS

| EPMR [1] | Compound | ED50 [2] [µg/kg] |
| --- | --- | --- |
| 0.2 | C[C@H](CNc1ccc(CC(=O)O)c(F)c1F)NC[C@H](O)c1cccc(Cl)c1 [Example 7, (4-{2R-[2-(3-Chloro-phenyl)-2R-hydroxyl-ethylamino]-propylamino}-2,3-difluoro-phenyl)-acetic acid] | 3 |
| 0.4 | COc1cc(NC[C@@H](C)NC[C@H](O)c2cccc(Cl)c2)c(Cl)cc1CC(=O)O [Example 8, (5-Chloro-4-{2R-[2-(3-chloro-phenyl)-2R-hydroxy-ethylaminol-propylamino}-2-methoxy-phenyl)-acetic acid dihydrochloride] | – |
| 6.0 | C[C@H](CNc1cc(F)c(OCC(=O)O)c(F)c1)NC[C@H](O)c1cccc(Cl)c1 [Example 15, (4-{2R-[2-(3-Chloro-phenyl)-2R-hydroxy-ethylamino]-propylamino}-2,6-difluoro-phenoxy)-acetic acid] | – |
